How the values were obtained:
[1] = molecular target: T1, GABAA2 receptors (α2, β3, γ2 receptor subunits transfected into Sf9 cells) (Homo sapiens, UniProt P18507+P47869); experiment: GABAA2 Binding Method ([3H]-Flunitrazepam displacement); settings: [3H]-Flunitrazepam ~2 nM, α2β3γ2 Sf9 membranes, 1 hr at 4° C.
T1 construct: host or cells: Sf9 cells (membranes)
Outline: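 Membranes from Sf9 cells expressing α2β3γ2 GABAA receptors incubated with ~2 nM (final) [3H]-flunitrazepam and test compound 1 h at 4 °C, then filtered on GF/B plates with cold-buffer washes. Flumazenil-defined controls; percent of control, IC50 and Ki calculated.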

GABAA receptor α1β2γ2 = molecular target: T2, GABAA receptor α1β2γ2 (Homo sapiens, UniProt P14867+P18507); experiment: Two-electrode voltage-clamp potentiation of GABA EC10 current in Xenopus oocytes, GABAA1; type: cell-based; settings: percentage potentiation of GABA EC10 current divided by that of diazepam
T2 construct: expressed in transfected cells; host or cells: Xenopus laevis oocytes injected with cRNA
Experimental: GABAA receptors were heterologously expressed in Xenopus oocytes by injecting cRNA corresponding to human α1, α2, α3, α5, β2, P3 and γ2 subunits of the GABAA receptor genes. The specific subunit combinations (subtypes) were as follows: α1β2γ2, α2β3γ2, α3β3γ2, and α5β3γ2. The EC10 of GABA is approximated for each cell. Stability of GABA-mediated (EC10) current is established. Modulatory effect of test compound is determined and compared across subtypes. […] Thus, the assay can characterize modulatory effects and determine subtype selectivity of test compounds on major subtypes of GABAA receptors.
Xenopus laevis frogs (Xenopus I, Kalamazoo, Mich.) were anesthetized using 0.15% tricaine. Surgically removed ovarian lobes were teased out in OR2 solution (82 NaCl, 2.5 KCl, 5 HEPES, 1.5 NaH2PO4, 1 MgCl2, 0.1 EDTA, in mM, pH 7.4). The oocytes were defolliculated by incubation in 25 mL OR2 containing 0.2% collagenase 1A (SIGMA) two times for about 60 minutes on a platform shaker and stored in Leibovitz's L-15 medium. Oocytes were injected the following day in 0.5× Leibovitz's L-15 medium containing […] gentamycin, 10 units/ml penicillin, and […] streptomycin.
Capped cRNAs from the linearized vectors containing human α1, β2 and γ2 subunits of the GABAA receptor genes were mixed in ratio of […]. Oocytes were injected with 25-50 nL of mixed RNA with an appx molar ratio for α1, β2, and γ2 as 1:1:10. Oocyte recordings were done 2-10 days after injection. The same methods apply to subtypes derived from α2β3γ2, α3β3γ2, and α5β3γ2, except for 1:1:1 ratio was used for α, β, and γ subunits.
All measurements were done in a medium containing ND-96 (96 NaCl, 2 KCl, 1.8 CaCl2.2H2O, 1 MgCl2.6H2O, 5 HEPES, in mM, pH 7.5). Two-electrode voltage-clamp recording was carried out using OpusXpress amplifier (Axon Instruments, Foster City, Calif.), which allows simultaneous recording from 8 oocytes. Oocytes were impaled with two electrodes of 1-2 MΩ tip resistance when filled with 3M KCl. Recordings were begun when membrane potential became stable at potentials negative to −50-−60 mV. Membrane potential was held at −60 mV. […] The concentration of GABA corresponded to the EC10 value calculated for each oocyte. The modulator pulses started 30 s before the GABA pulse so as to allow preincubation with the modulator. A set of 3 pulses with just GABA without modulator was given prior to the modulator-containing pulses to define the baseline GABA response. Two oocytes per each experiment were dedicated to observe the effect of diazepam on GABA response to ensure the presence of γ2 subunit in the GABAA pentameric complex, which imparts diazepam sensitivity to the complex.
Current amplitude (i) was measured from baseline to peak using Clampfit (Axon Inst., Foster City, Calif.). Potentiation was calculated as percent change from the baseline GABA current flux 100×(imod/icontrol)−1) where imod=current mediated by modulator+GABA and icontrol=current mediated by GABA alone. […] Similarly, a value of −50% potentiation means the presence of modulator caused a 50% decrease in the control current. Various other data shown here were fitted and plotted using GraphPad Prism (GraphPad Software, Inc. San Diego, Calif.). The percentage potentiation was converted to relative potentiation by dividing it with percentage potentiation value obtained from the same assay with diazepam as a control.

T2 sequence (P14867 28-456): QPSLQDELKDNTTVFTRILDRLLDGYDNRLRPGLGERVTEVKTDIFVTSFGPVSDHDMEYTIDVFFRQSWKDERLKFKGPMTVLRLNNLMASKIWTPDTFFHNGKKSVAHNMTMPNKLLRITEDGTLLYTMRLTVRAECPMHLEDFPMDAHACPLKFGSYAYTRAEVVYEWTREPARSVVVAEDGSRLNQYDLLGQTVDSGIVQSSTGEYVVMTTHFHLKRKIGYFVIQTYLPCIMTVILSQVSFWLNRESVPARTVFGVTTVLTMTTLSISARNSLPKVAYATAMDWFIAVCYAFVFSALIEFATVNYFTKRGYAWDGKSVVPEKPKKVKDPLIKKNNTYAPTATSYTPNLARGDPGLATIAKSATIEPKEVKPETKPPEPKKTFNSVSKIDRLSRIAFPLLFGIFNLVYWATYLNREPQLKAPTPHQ
T2 sequence (P47870 25-512 partner limits assumed): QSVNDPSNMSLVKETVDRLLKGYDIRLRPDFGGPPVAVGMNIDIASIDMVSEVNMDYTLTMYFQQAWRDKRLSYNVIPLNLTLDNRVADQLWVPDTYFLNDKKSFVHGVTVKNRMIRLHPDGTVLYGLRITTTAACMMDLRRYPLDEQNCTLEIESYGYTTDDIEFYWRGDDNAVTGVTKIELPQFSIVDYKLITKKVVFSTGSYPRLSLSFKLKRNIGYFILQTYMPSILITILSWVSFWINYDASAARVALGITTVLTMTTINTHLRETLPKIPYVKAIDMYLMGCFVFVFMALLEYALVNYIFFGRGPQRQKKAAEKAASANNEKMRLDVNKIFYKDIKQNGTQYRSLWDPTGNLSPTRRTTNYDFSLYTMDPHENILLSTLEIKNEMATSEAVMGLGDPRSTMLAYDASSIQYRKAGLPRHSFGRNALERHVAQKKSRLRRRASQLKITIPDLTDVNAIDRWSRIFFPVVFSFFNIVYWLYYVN
T2 sequence (P18507 40-475): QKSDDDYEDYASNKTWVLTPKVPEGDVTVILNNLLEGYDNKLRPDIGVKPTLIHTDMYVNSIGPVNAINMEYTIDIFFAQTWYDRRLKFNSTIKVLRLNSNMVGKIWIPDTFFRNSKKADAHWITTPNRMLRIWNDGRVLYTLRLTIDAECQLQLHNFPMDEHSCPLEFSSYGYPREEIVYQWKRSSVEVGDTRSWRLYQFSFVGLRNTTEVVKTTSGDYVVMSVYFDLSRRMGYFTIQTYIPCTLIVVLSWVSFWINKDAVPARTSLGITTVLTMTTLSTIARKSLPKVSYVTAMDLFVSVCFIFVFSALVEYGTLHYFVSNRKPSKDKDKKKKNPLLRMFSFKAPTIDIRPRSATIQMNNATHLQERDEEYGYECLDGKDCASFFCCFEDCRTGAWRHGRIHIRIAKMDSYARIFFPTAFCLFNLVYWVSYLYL
T1 sequence (P47869 29-451): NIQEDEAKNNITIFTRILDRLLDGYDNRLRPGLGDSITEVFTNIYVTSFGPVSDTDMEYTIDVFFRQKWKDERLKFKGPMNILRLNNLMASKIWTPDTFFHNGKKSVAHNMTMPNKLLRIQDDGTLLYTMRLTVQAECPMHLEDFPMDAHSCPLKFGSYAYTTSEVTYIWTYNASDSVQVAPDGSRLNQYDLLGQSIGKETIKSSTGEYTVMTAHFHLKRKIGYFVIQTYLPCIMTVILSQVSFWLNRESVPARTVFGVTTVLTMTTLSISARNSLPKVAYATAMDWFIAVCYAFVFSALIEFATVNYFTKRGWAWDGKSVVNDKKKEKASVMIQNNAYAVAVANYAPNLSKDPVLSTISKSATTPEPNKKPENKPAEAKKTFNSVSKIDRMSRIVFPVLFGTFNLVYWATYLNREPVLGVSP
T1 sequence (P28472 26-473 partner): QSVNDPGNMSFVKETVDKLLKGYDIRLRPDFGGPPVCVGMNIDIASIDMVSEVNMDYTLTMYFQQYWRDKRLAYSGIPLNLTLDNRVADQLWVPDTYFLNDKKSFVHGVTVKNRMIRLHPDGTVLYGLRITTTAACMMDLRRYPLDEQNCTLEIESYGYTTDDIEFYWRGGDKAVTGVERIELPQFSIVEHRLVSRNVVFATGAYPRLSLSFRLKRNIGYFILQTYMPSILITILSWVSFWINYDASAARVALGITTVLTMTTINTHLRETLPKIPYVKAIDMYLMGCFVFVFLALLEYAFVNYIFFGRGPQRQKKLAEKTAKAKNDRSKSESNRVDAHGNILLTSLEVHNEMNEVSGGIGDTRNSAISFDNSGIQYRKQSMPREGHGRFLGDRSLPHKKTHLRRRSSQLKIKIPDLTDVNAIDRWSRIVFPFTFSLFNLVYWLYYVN
T1 sequence (P18507 40-475): as the sequence (P18507 40-475) above

| SMILES | Ki [1] | Relative Potentiation for GABAA1 (GABAA receptor α1β2γ2) |
| --- | --- | --- |
| CCCN1Cc2nc3c(-c4cc(C(F)(F)F)ccc4F)cccc3c(N)c2C1=O [9-amino-5-(2-fluoro-5-(trifluoromethyl)phenyl)-2-propyl-2,3-dihydro-1H-pyrrolo[3,4-b]quinolin-1-one] | 24 nM | 0.55 |
| COc1ccc(CN2Cc3nc4c(-c5ccc(C)nc5C)cccc4c(N)c3C2=O)cc1OC [9-amino-2-(3,4-dimethoxybenzyl)-5-(2,6-dimethylpyridin-3-yl)-2,3-dihydro-1H-pyrrolo[3,4-b]quinolin-1-one] | 2.7 nM | 0.21 |
| CCCN1Cc2nc3c(-c4cncc(C#N)c4)cccc3c(N)c2C1=O [5-(9-amino-1-oxo-2-propyl-2,3-dihydro-1H-pyrrolo[3,4-b]quinolin-5-yl)nicotinonitrile] | 64.9 nM | 0.26 |
| CCCCN1Cc2nc3c(-c4cc(C)ccc4OC)cccc3c(N)c2C1=O [9-amino-2-butyl-5-(2-methoxy-5-methylphenyl)-2,3-dihydro-1H-pyrrolo[3,4-b]quinolin-1-one] | 21.3 nM | 0.56 |
| Nc1c2c(nc3c(-c4cc(Cl)ccc4Cl)cccc13)CN(C1CCC1)C2=O [9-amino-2-cyclobutyl-5-(2,5-dichlorophenyl)-2,3-dihydro-1H-pyrrolo[3,4-b]quinolin-1-one] | 3.15 nM | 0.16 |
| CCCN1Cc2nc3c(-c4ccsc4)cccc3c(N)c2C1=O [9-amino-2-propyl-5-(thiophen-3-yl)-2,3-dihydro-1H-pyrrolo[3,4-b]quinolin-1-one] | 30.8 nM | 0.19 |
| COc1ccc(-c2cccc3c(N)c4c(nc23)CN(Cc2ccc(OC)c(OC)c2)C4=O)c(C)n1 [9-amino-2-(3,4-dimethoxybenzyl)-5-(6-methoxy-2-methylpyridin-3-yl)-2,3-dihydro-1H-pyrrolo[3,4-b]quinolin-1-one] | 4.7 nM | 0.26 |
| CCCN1Cc2nc3c(-c4ccc(C)nc4OC)cccc3c(N)c2C1=O [9-amino-5-(2-methoxy-6-methylpyridin-3-yl)-2-propyl-2,3-dihydro-1H-pyrrolo[3,4-b]quinolin-1-one] | 24 nM | 1.1 |
| CCCN1Cc2nc3c(-c4cc(F)ncc4OC)cccc3c(N)c2C1=O [9-amino-5-(2-fluoro-5-methoxypyridin-4-yl)-2-propyl-2,3-dihydro-1H-pyrrolo[3,4-b]quinolin-1-one] | 8.08 nM | 0.6 |
| COc1ccc(CN2Cc3nc4c(-c5cc(C)ccc5OC)cccc4c(N)c3C2=O)cc1OC [9-amino-2-(3,4-dimethoxybenzyl)-5-(2-methoxy-5-methylphenyl)-2,3-dihydro-1H-pyrrolo[3,4-b]quinolin-1-one] | 9.18 nM | 0.3 |
| CCCN1Cc2nc3c(-c4ccc(OC)c(OC)c4OC)cccc3c(N)c2C1=O [9-amino-2-propyl-5-(2,3,4-trimethoxyphenyl)-2,3-dihydro-1H-pyrrolo[3,4-b]quinolin-1-one] | 49.8 nM | 0.55 |
| CCCN1Cc2nc3c(-c4ccc(OC)cc4F)cccc3c(N)c2C1=O [9-amino-5-(2-fluoro-4-methoxyphenyl)-2-propyl-2,3-dihydro-1H-pyrrolo[3,4-b]quinolin-1-one] | 12.8 nM | 0.12 |
| COc1ccc(CN2Cc3nc4c(-c5ccc(OC)c(OC)c5)cccc4c(N)c3C2=O)cc1 | 47.7 nM | 0.61 |
| COc1ccc(CN2Cc3nc4c(-c5cccnc5OC)cccc4c(N)c3C2=O)cc1OC [9-amino-2-(3,4-dimethoxybenzyl)-5-(2-methoxypyridin-3-yl)-2,3-dihydro-1H-pyrrolo[3,4-b]quinolin-1-one] | 2.3 nM | 0.12 |
| CCCN1Cc2nc3c(-c4ccc(OC)cc4OC)c(F)ccc3c(N)c2C1=O [9-amino-5-(2,4-dimethoxyphenyl)-6-fluoro-2-propyl-2,3-dihydro-1H-pyrrolo[3,4-b]quinolin-1-one] | 13.9 nM | 0.39 |
